This passage reports DC50 results from US20260306639A1, “DEGRADER FOR DECOMPOSING CMET PROTEIN, AND PHARMACEUTICAL COMPOSITION COMPRISING SAME” (INNOCURE THERAPEUTICS, INC., priority 2022, published 2026).

The assay deals with c-MET. As to the kind of experiment: c-MET protein degradation (Simple Western), MKN-45 cells. It counts as cell-based, human. Particulars: MKN-45 gastric cancer cells, c-MET overexpressing; 24 hours. The protocol:
In order to assess the resolution of the compound of the present invention for c-MET expressed in cells, cells were dispensed in a 12-well plate at a concentration of 2×10^5 cells/well, and then gastric cancer cell lines were treated with samples for 24 hours and lung cancer cell lines were treated for 48 hours. Cell lysates were collected using a scraper on ice, centrifuged at 4° C. 15,000 rpm for 30 min to obtain a protein-containing supernatant. Protein expression was then measured using the Simple Western Automated Western Blot System Abby instrument using 3 μg of protein for each sample. SDS and heat-induced denaturation proteins were separated by molecular weight, attached to capillary, reacted with anti-c-MET or anti-GAPDH antibodies, which are primary antibodies, and then reacted with HRP-conjugated secondary antibodies, and analyzed the protein expression signal with compass software. Protein expression was normalized based on the expression value of GAPDH, and protein development in each sample was measured as a percentage (%) based on 100% of samples treated with 0.1% DMSO carriers, and DC50 (concentration of a compound where 50% protein inhibition is achieved) was calculated from the change in protein expression amount due to compound treatment.

For the compound `N#Cc1cccc(-c2ccc(=O)n(Cc3cccc(-c4ncc(OCC5CCN(C(=O)CCOCCOCCOCCOCCNc6cccc7cnn(C8CCC(=O)NC8=O)c(=O)c67)CC5)cn4)c3)n2)c1` (stereo not shown) [ICT-0000907], the DC50 (in general, the concentration at which degradation of the target reaches its halfway point) was 100 to 1000 nM.

Take `Cn1cc(-c2cnc3c(nnn3C[C@@H]3CN(c4ncc(-c5ccc(CN6CCN(C(=O)CCCNc7ccc8c(=O)n(C9CCC(=O)NC9=O)ncc8c7)CC6)cc5)cn4)CCO3)n2)cn1` (stereo partly drawn) [ICT-0000922, 3-{6-[(4-{4-[(4-{2-[(2S)-2-{[5-(1-methyl-1H-pyrazole-4-yl)-1H-[1,2,3]triazolo[4,5-b]pyrazine-1-yl]methyl}morpholine-4-il]pyrimidine-5-yl}phenyl)methyl]piperazine-1-yl}-4-oxobutyl)amino]-1-oxo-1,2-dihydroptalazine-2-yl}piperidine-2,6-dione]: the DC50 was under 100 nM.

`Cn1cc(-c2cnc3c(nnn3C[C@@H]3CN(c4ncc(-c5ccc(CN6CCN(C(=O)CCCCCNc7ccc8c(=O)n(C9CCC(=O)NC9=O)ncc8c7)CC6)cc5)cn4)CCO3)n2)cn1` (stereo partly drawn) [ICT-0000923, 3-{6-[(6-{4-[(4-{2-[(2S)-2-{[5-(1-methyl-1H-pyrazole-4-yl)-1H-[1,2,3]triazolo[4,5-b]pyrazine-1-yl]methyl}morpholine-4-day]pyrimidine-5-yl}phenyl)methyl]piperazine-1-yl}-6-oxohexyl)amino]-1-oxo-1,2-dihydrophthalazine-2-yl}piperidine-2,6-dione] yielded a DC50 of under 100 nM.

Consider `Cn1cc(-c2cnc3c(nnn3C[C@@H]3CN(c4ncc(-c5ccc(CN6CCN(C(=O)CCCCNc7ccc8c(=O)n(C9CCC(=O)NC9=O)ncc8c7)CC6)cc5)cn4)CCO3)n2)cn1` (stereo partly drawn) [ICT-0000924, 3-(6-((5-(4-(4-(2-((S)-2-((5-(1-methyl-1H-pyrazole-4-yl)-1H-[1,2,3]triazolo[4,5-b]pyrazine-1-yl)methyl)morpholino)pyrimidine-5-yl)benzyl)piperazine-1-yl)5-oxopentyl)amino)1-oxopthalazine-2(1H)-yl)piperidine-2,6-dione], for which the DC50 was under 100 nM.

The compound `Cn1cc(-c2cnc3c(nnn3C[C@@H]3CN(c4ncc(-c5ccc(CN6CCN(C(=O)CCCCCCNc7ccc8c(=O)n(C9CCC(=O)NC9=O)ncc8c7)CC6)cc5)cn4)CCO3)n2)cn1` (stereo partly drawn) [ICT-0000925, 3-(6-((7-(4-(4-(2-((S)-2-((5-(1-methyl-1H-pyrazole-4-yl)-1H-[1,2,3]triazolo[4,5-b]pyrazine-1-yl)methyl)morpholino)pyrimidine-5-yl)benzyl)piperazine-1-yl)7-oxoheptyl)amino)1-oxopthalazine-2(1H)-yl)piperidine-2,6-dione] gave a DC50 of under 100 nM.

Take `Cn1cc(-c2cnc3c(nnn3C[C@@H]3CN(c4ncc(-c5ccc(CN6CCN(C(=O)COCCOCCOCCNc7ccc8c(=O)n(C9CCC(=O)NC9=O)ncc8c7)CC6)cc5)cn4)CCO3)n2)cn1` (stereo partly drawn) [ICT-0000938, 3-[6-(12-{4-[(4-{2-[(2S)-2-{[5-(1-methyl-1H-pyrazole-4-yl)-1H-[1,2,3]triazolo[4,5-b]pyrazine-1-yl]methyl}morpholine-4-yl]pyrimidine-5-yl}phenyl)methyl]piperazine-1-yl}-12-oxo-4,7,10-trioxa-1-azadodecane-1-yl)-1-oxo-1,2-dihydroptalazine-2-yl]piperidine-2,6-dione]: the 50% degradation concentration (DC50) was over 1000 nM.

Compound `Cn1cc(-c2cnc3c(nnn3C[C@@H]3CN(c4ncc(-c5ccc(CN6CCN(C(=O)COCCOCCOCCOCCNc7ccc8c(=O)n(C9CCC(=O)NC9=O)ncc8c7)CC6)cc5)cn4)CCO3)n2)cn1` (stereo partly drawn) [ICT-0000939, 3-[6-(15-{4-[(4-{2-[(2S)-2-{[5-(1-methyl-1H-pyrazole-4-yl)-1H-[1,2,3]triazolo[4,5-b]pyrazine-1-yl]methyl}morpholine-4-yl]pyrimidine-5-yl}phenyl)methyl]piperazine-1-yl}-15-oxo-4,7,10,13-tetraoxa-1-azpentadecane-1-yl)-1-oxo-1,2-dihydroptalazine-2-yl]piperidine-2,6-dione] displayed a half-maximal degradation concentration (DC50) of over 1000 nM.

In the case of `Cn1cc(-c2cnc3c(nnn3C[C@@H]3CN(c4ncc(-c5ccc(CN6CCN(C(=O)CCOCCOCCNc7cccc8cnn(C9CCC(=O)NC9=O)c(=O)c78)CC6)cc5)cn4)CCO3)n2)cn1` (stereo partly shown) [ICT-0000940], the DC50 was 100 to 1000 nM.

On to `Cn1cc(-c2cnc3c(nnn3C[C@@H]3CN(c4ncc(-c5ccc(CN6CCN(C(=O)CCCCNc7cccc8cnn(C9CCC(=O)NC9=O)c(=O)c78)CC6)cc5)cn4)CCO3)n2)cn1` (stereo partly drawn) [ICT-0000959, 3-{8-[(5-{4-[(4-{2-[(2S)-2-{[5-(1-methyl-1H-pyrazole-4-yl)-1H-[1,2,3]triazolo[4,5-b]pyrazine-1-yl]methyl}morpholine-4-il]pyrimidine-5-yl}phenyl)methyl]piperazine-1-yl}-5-oxopentyl)amino]-1-oxo-1,2-dihydropthalazine-2-yl}piperidine-2,6-dione], for which the DC50 was under 100 nM.

In turn, `Cn1cc(-c2cnc3c(nnn3CC3CN(c4ncc(-c5ccc(CN6CCN(C(=O)CCCNc7cccc8cnn(C9CCC(=O)NC9=O)c(=O)c78)CC6)cc5)cn4)CCO3)n2)cn1` [ICT-0000969, 3-(8-((4-(4-(4-(4-(2-((S)-2-((5-(1-methyl-1H-pyrazole-4-yl)-1H-[1,2,3]triazolo[4,5-b]pyrazine-1-yl)methyl)morpholino)pyrimidine-5-yl)benzyl)piperazine-1-yl)4-oxobutyl)amino)1-oxopthalazine-2(1H)-yl)piperidine-2,6-dione] showed a 50% degradation concentration (DC50) of under 100 nM.

As to `Cc1nn(C2CCC(=O)NC2=O)c(=O)c2c(NCC(=O)N3CCC(COc4cnc(-c5cccc(Cn6nc(-c7cccc(C#N)c7)ccc6=O)c5)nc4)CC3)cccc12` (stereo not shown) [ICT-0000981], the DC50 was over 1000 nM.

`N#Cc1cccc(-c2ccc(=O)n(Cc3cccc(-c4ncc(OCC5CCN(C(=O)CCCCCNc6ccc7c(=O)n(C8CCC(=O)NC8=O)ncc7c6)CC5)cn4)c3)n2)c1` (stereo not shown) [ICT-0000984, 3-(1-{[3-(5-{[1-(6-{[2-(2,6-dioxopiperidin-3-yl)-1-oxo-1,2-dihydroptalazine-6-yl]amino}hexanoyl)piperidine-4-il]methoxy}pyrimidine-2-yl)phenyl]methyl}-6-oxo-1,6-dihydropyridazine-3-yl)benzonitrile] showed a DC50 of 100 to 1000 nM.

`N#Cc1cccc(-c2ccc(=O)n(Cc3cccc(-c4ncc(OCC5CCN(C(=O)CCCCCCNc6ccc7c(=O)n(C8CCC(=O)NC8=O)ncc7c6)CC5)cn4)c3)n2)c1` (stereo not shown) [ICT-0000985, 3-(1-{[3-(5-{[1-(7-{[2-(2,6-dioxopiperidin-3-yl)-1-oxo-1,2-dihydrophthalazine-6-yl]amino}heptanoyl)piperidine-4-il]methoxy}pyrimidine-2-yl)phenyl]methyl}-6-oxo-1,6-dihydropyridazine-3-yl)benzonitrile] showed a DC50 of under 100 nM.

The compound `N#Cc1cccc(-c2ccc(=O)n(Cc3cccc(-c4ncc(OCC5CCN(C(=O)COCCOCCNc6ccc7c(=O)n(C8CCC(=O)NC8=O)ncc7c6)CC5)cn4)c3)n2)c1` (stereo not shown) [ICT-0000986, 3-{1-[(3-{5-[(1-{2-[2-(2-{[2-(2,6-dioxopiperidin-3-yl)-1-oxo-1,2-dihydropthalazine-6-yl]amino}ethoxy)ethoxy]acetyl}piperidine-4-il)methoxy]pyrimidine-2-yl}phenyl)methyl]-6-oxo-1,6-dihydropyridazine-3-yl}benzonitrile] yielded a DC50 of under 100 nM.

Compound `Cc1nn(C2CCC(=O)NC2=O)c(=O)c2ccc(NCCCC(=O)N3CCC(COc4cnc(-c5cccc(Cn6nc(-c7cccc(C#N)c7)ccc6=O)c5)nc4)CC3)cc12` (stereo not shown) [ICT-0000989] yielded a DC50 of 100 to 1000 nM.

Compound `Cc1nn(C2CCC(=O)NC2=O)c(=O)c2ccc(NCCOCCOCC(=O)N3CCC(COc4cnc(-c5cccc(Cn6nc(-c7cccc(C#N)c7)ccc6=O)c5)nc4)CC3)cc12` (stereo not shown) [ICT-0001087] had a DC50 of under 100 nM.

With `Cc1nn(C2CCC(=O)NC2=O)c(=O)c2ccc(NCCOCCOCCOCCOCCC(=O)N3CCC(COc4cnc(-c5cccc(Cn6nc(-c7cccc(C#N)c7)ccc6=O)c5)nc4)CC3)cc12` (stereo not shown) [ICT-0001091], the half-maximal degradation concentration (DC50) was under 100 nM.

`Cn1cc(-c2cnc3c(nnn3C[C@@H]3CN(c4ncc(-c5ccc(CN6CCN(C(=O)CN7CCN(c8ccc9c(=O)n(C%10CCC(=O)NC%10=O)ncc9c8)CC7)CC6)cc5)cn4)CCO3)n2)cn1` (stereo partly shown) [ICT-0001109] came in with a DC50 of under 100 nM.

Turning to `Cc1nn(C2CCC(=O)NC2=O)c(=O)c2cc(N3CCN(C(=O)CN4CCC(COc5cnc(-c6cccc(Cn7nc(-c8cccc(C#N)c8)ccc7=O)c6)nc5)CC4)CC3)ccc12` (stereo not shown) [ICT-0001115, 3-(1-(3-(5-((1-(2-(4-(3-(2,6-dioxopiperidin-3-yl)-1-methyl-4-oxo-3,4-dihydropetalazine-6-yl)piperazine-1-yl)2-oxoethyl)piperidine-4-il)methoxy)pyrimidine-2-yl)benzyl)6-oxo-1,6-dihydropyridazine-3-yl)benzonitrile], the DC50 was under 100 nM.

`Cc1nn(C2CCC(=O)NC2=O)c(=O)c2ccc(N3CCN(CCC(=O)N4CCC(COc5cnc(-c6cccc(Cn7nc(-c8cccc(C#N)c8)ccc7=O)c6)nc5)CC4)CC3)cc12` (stereo not shown) [ICT-0001174] gave a DC50 of under 100 nM.

Compound `Cc1nn(C2CCC(=O)NC2=O)c(=O)c2ccc(N3CCN(CCCC(=O)N4CCC(COc5cnc(-c6cccc(Cn7nc(-c8cccc(C#N)c8)ccc7=O)c6)nc5)CC4)CC3)cc12` (stereo not shown) [ICT-0001175, 3-(1-(3-(5-((1-(4-(4-(2-(2,6-dioxopiperidine-3-yl)-4-methyl-1-oxo-1,2-dihydropthalazine-6-yl)piperazine-1-yl)butanoyl)piperidine-4-il)methoxy)pyrimidine-2-yl)benzyl)6-oxo-1,6-dihydropyridazine-3-yl)benzonitrile] registered a 50% degradation concentration (DC50) of under 100 nM.

On to `Cc1nn(C2CCC(=O)NC2=O)c(=O)c2ccc(N3CCN(CCCCC(=O)N4CCC(COc5cnc(-c6cccc(Cn7nc(-c8cccc(C#N)c8)ccc7=O)c6)nc5)CC4)CC3)cc12` (stereo not shown) [ICT-0001176], for which the half-maximal degradation concentration (DC50) was under 100 nM.
